Laboratory results as given in ChEMBL document CHEMBL5729420, “Substituted imidazo[1,2-c]pyrimidines as PRC2 inhibitors” (2022).

Target: Histone-binding protein RBBP4/Polycomb protein EED/Polycomb protein SUZ12/Zinc finger protein AEBP2 (Homo sapiens, UniProt O75530+Q09028+Q15022+Q6ZN18)
Test: Enzymatic Activity Assay: An aliquot of each serial dilution of test compound was added to deep 384 well plate using Acoustic Technology instrument (Echo 550, LabCyte) containing reaction buffer (50 mM Tris-HCl (pH 8), 0.01% Brij35, 1 mM EDTA, 1 mM DTT, 1 mM PMSF and 1% DMSO), 10 nM purified PRC2 complex and 0.05 mg/ml core histone H3 in a 5 μl volume. The reaction was mixed gently and then pre-incubated for 20 min at 30° C. The enzymatic reaction was initiated by adding 1 uM S-Adenosyl-L-[methyl-3H]methionine and incubated for 1 hr at 30° C. After 1 hr, the reaction product was detected using a filter binding method and the amount of tritiated H3 core histone was quantitated using a scintillation counter.
Assay type: protein-complex assay

Histone-binding protein RBBP4/Polycomb protein EED/Polycomb protein SUZ12/Zinc finger protein AEBP2, sequence (O75530 whole entry): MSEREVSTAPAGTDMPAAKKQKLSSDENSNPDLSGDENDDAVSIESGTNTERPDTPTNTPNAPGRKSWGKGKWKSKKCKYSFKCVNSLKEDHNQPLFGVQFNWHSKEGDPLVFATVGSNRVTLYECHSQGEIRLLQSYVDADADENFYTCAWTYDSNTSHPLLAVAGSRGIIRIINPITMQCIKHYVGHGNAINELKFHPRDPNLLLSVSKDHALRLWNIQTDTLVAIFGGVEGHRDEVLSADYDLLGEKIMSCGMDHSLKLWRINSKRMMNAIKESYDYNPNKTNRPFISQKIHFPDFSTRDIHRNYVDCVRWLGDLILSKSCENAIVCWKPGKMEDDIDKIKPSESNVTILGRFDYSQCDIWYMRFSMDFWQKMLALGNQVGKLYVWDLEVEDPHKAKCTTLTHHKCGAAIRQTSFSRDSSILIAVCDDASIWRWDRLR
Histone-binding protein RBBP4/Polycomb protein EED/Polycomb protein SUZ12/Zinc finger protein AEBP2, sequence (Q15022 whole entry): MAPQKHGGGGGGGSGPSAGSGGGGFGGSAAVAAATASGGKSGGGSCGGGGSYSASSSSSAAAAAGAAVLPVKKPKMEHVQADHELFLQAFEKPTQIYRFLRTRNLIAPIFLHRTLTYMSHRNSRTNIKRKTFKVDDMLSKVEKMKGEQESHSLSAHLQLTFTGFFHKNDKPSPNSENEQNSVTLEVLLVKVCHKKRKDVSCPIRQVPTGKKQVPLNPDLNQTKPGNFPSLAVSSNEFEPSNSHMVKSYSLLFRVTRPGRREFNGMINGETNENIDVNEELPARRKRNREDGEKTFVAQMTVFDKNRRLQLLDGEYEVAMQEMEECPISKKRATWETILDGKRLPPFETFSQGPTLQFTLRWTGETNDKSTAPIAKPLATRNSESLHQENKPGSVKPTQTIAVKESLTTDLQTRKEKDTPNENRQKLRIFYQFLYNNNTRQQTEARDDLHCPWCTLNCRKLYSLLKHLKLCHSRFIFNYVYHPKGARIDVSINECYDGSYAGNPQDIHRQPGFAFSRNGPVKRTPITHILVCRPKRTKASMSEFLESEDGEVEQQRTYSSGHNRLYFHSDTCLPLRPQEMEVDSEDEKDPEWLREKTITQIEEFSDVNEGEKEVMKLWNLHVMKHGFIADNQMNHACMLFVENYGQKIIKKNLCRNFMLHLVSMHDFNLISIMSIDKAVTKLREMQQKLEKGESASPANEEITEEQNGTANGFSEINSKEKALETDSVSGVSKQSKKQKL
Histone-binding protein RBBP4/Polycomb protein EED/Polycomb protein SUZ12/Zinc finger protein AEBP2, sequence (Q6ZN18 whole entry): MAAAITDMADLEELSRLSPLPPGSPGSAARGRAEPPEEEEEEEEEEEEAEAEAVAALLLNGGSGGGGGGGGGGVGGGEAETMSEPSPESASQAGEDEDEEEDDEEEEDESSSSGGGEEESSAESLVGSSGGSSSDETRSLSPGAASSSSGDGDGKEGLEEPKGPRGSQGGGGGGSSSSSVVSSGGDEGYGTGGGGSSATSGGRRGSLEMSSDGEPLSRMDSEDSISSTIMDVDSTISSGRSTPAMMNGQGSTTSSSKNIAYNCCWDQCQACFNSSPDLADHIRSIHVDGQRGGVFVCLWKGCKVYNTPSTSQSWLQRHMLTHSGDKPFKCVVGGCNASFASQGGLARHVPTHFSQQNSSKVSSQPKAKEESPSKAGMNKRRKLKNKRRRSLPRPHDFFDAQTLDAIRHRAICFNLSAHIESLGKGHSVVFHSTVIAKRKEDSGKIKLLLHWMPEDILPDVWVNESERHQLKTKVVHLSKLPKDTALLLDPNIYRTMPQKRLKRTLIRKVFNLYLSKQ
Histone-binding protein RBBP4/Polycomb protein EED/Polycomb protein SUZ12/Zinc finger protein AEBP2, sequence (Q09028 whole entry): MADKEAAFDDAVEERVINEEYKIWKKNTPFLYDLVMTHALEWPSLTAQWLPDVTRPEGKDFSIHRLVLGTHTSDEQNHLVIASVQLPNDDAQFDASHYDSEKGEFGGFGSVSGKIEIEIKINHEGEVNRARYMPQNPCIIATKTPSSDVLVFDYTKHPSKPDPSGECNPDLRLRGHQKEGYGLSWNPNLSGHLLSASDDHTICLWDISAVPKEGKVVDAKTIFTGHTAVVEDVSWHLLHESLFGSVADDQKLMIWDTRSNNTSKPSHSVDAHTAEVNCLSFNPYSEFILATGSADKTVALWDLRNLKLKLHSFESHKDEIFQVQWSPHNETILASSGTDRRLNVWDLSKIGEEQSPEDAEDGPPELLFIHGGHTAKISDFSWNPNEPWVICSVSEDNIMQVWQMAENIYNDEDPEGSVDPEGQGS

IC50: > 500 nM
SMILES: Cc1cc(-c2cnc(NCc3c(F)ccc4c3CCCO4)n3cc(C#N)nc23)n(C)n1
